The record followed here is US4430339A, “Substituted oxiranecarboxylic acids, their preparation and their use as medicaments” (Byk Gulden Lomberg Chemische Fabrik Gesellschaft mit …, priority 1980, dated 1984).

System in the first series: not listed separately
Put plainly: in vivo. To be noted: mouse, po, mice p.o., observation time 7 days, read-out: Acute toxicity LD50 (converted). The method, then:
Column B provides data relating to acute toxicity (LD50; mice, peroral administration).
2. Determination of the toxicity.
Various doses of the substances (volume: 10 ml/kg) are administered orally by means of a stomach tube. The observation time is 7 days.
Take `CCOC(=O)C1(CCCC2CCCCC2)CO1` (stereo not shown) [Serial No. 3, 2-(3-Cyclohexylpropyl)-oxirane-2-carboxylic acid ethyl ester]: the LD50 was 1400 mg/kg.

Regarding `CCOC(=O)C1(CCCCCC2CCCCC2)CO1` (stereo not shown) [Serial No. 4, 2-(5-Cyclohexylpentyl)-oxirane-2-carboxylic acid ethyl ester], the LD50 is 520 mg/kg.

Consider `CCOC(=O)C1(CCCC2CCCC2)CO1` (stereo not shown) [Serial No. 5, 2-(3-Cyclopentylpropyl)-oxirane-2-carboxylic acid ethyl ester], for which the LD50 is 2400 mg/kg.

As for `CCOC(=O)C1(CCCCC2CCCC2)CO1` (stereo not shown) [Serial No. 6, 2-(4-Cyclopentylbutyl)-oxirane-2-carboxylic acid ethyl ester], the LD50 is 1600 mg/kg.

As for `CCOC(=O)C1(CCOCCCC2CCCCC2)CO1` (stereo not shown) [Serial No. 7, 2-[2-(3-Cyclohexylpropyloxy)-ethyl]-oxirane-2-carboxylic acid ethyl ester], the LD50 was 570 mg/kg.

Regarding `CCOC(=O)C1(CCCC2CCCCCC2)CO1` (stereo not shown) [Serial No. 8, 2-(3-Cycloheptylpropyl)-oxirane-2-carboxylic acid ethyl ester], the LD50 was 790 mg/kg.

With `CCOC(=O)C1(CCCCCC2CCCCCC2)CO1` (stereo not shown) [Serial No. 9, 2-(5-Cycloheptylpentyl)-oxirane-2-carboxylic acid ethyl ester], the LD50 is 330 mg/kg.

Another series relates to blood glucose concentration. The experiment in a line: Determination of glucose in the blood after a single oral administration (fasted, metabolically healthy rats). Details: species or system Sprague-Dawley rats. Conditions: Rattus norvegicus, po, 6 h, read-out: Change in the blood glucose concentration (in %) in vivo (maximum, relative to the control group). The method, then:
Table I reflects investigations of the effect of representative compounds according to the invention on the blood glucose concentration of fasting, metaboically healthy rats. Column A in each case gives the maximum lowering of the blood glucose concentration of rats which have been fasted (in %, relative to the control group) which is observed in the course of 6 hours after single oral administration of 0.6 mmole of substance/kg of body weight. Column B provides data relating to acute toxicity (LD50; mice, peroral administration).
Column A = maximum change in the blood glucose concentration (in %,
relative to the control animals) in vivo in rats which have been fasted a
1. Determination of glucose in the blood after a single oral administration.
Young male Sprague-Dawley rats (body weight: 150 to 200 g) are used. The animals (6 animals per dose) are kept in Makrolon cages with up to 4 animals per cage (ambient temperature: 23° C., relative atmospheric humidity: 55%, fixed day/night rhythm [12/12 hours], standard diet: Altromin®). The rats are deprived of the feed 18 hours before the first sample of blood is taken. Water is available ad libitum. Samples of blood are taken from the postorbital plexus by puncture immediately before and 2, 4 and 6 hours after administration of the substance.
After deproteinization with perchloric acid, the glucose in the blood is determined by means of the enzymatic HK/G-6-PDH method of R. Richterich [Klinische Chemie, Theorie und Praxis, (Clinical Chemistry, Theory and Practice), 3rd edition, 1971, S. Karger Verlag, Zurich-Basle, page 275]. A control group (10 animals, treated with pure solvent) is also investigated in each case for comparison.
`CCCCNC(=N)NC(=N)N` [Serial No. 1, Buformin, reference compound]: the change in vivo at 600 µmol/kg is -8%.

Still in this series, the particulars now being: Rattus norvegicus; fasted rats; single oral administration of 0.6 mmole/kg; maximum in the course of 6 hours; read-out: Change in the blood glucose concentration (in %) in vivo (maximum, relative to the control group).
With `[H]/N=C(/N)N/C(=N/[H])NCCc1ccccc1` [Serial No. 2, Phenformin, reference compound], the change in vivo at 600 µmol/kg is -6%.

With `CCOC(=O)C1(CCCC2CCCCC2)CO1` (stereo not shown) [Serial No. 3, 2-(3-Cyclohexylpropyl)-oxirane-2-carboxylic acid ethyl ester], the change in vivo at 600 µmol/kg was -24%.

For the compound `CCOC(=O)C1(CCCCCC2CCCCC2)CO1` (stereo not shown) [Serial No. 4, 2-(5-Cyclohexylpentyl)-oxirane-2-carboxylic acid ethyl ester], the change in vivo at 600 µmol/kg is -48%.

For `CCOC(=O)C1(CCCC2CCCC2)CO1` (stereo not shown) [Serial No. 5, 2-(3-Cyclopentylpropyl)-oxirane-2-carboxylic acid ethyl ester], the change in vivo at 600 µmol/kg is -15%.

For `CCOC(=O)C1(CCCCC2CCCC2)CO1` (stereo not shown) [Serial No. 6, 2-(4-Cyclopentylbutyl)-oxirane-2-carboxylic acid ethyl ester], the change in vivo at 600 µmol/kg was -21%.

With `CCOC(=O)C1(CCOCCCC2CCCCC2)CO1` (stereo not shown) [Serial No. 7, 2-[2-(3-Cyclohexylpropyloxy)-ethyl]-oxirane-2-carboxylic acid ethyl ester], the change in vivo at 600 µmol/kg was -30%.

On to `CCOC(=O)C1(CCCC2CCCCCC2)CO1` (stereo not shown) [Serial No. 8, 2-(3-Cycloheptylpropyl)-oxirane-2-carboxylic acid ethyl ester], for which the change in vivo at 600 µmol/kg is -22%.

Regarding `CCOC(=O)C1(CCCCCC2CCCCCC2)CO1` (stereo not shown) [Serial No. 9, 2-(5-Cycloheptylpentyl)-oxirane-2-carboxylic acid ethyl ester], the change in vivo at 600 µmol/kg was -18%.
